Results: US8895733B2 (Novartis AG, priority 2010, dated 2014)

Assays:
Nav 1.7 [1] = molecular target: T1, Nav 1.7 (Homo sapiens, UniProt Q15858); assay: Whole-cell voltage clamp electrophysiology, manual patch clamp (marker b in Table of Examples); format: cell-based; details: marker b: Manual patch clamp data; read-out: Nav 1.7 activity
T1 construct: expressed in transfected cells
From the text: (§1) a.IonWork Quattro data, b=Manual patch clamp data, c=Automated patch clamp data M=Method
(§2) Whole-Cell Voltage Clamp Electrophysiology Assay
(§3) Patch-clamp electrophysiology is considered the gold standard technique for investigation of ion channel function and pharmacology. Using this method, sodium channel currents can be measured in cells, which stably (or transiently) express the sodium channel subtype of interest. Application of compounds during such experiments provides a functional measure of the activity and potency of compounds affecting the ion channel of interest.
(§4) Electrophysiological studies can also be performed using the whole cell configuration of the standard manual patch clamp technique as described in the literature (e.g. Pflugers Arch., 1981, 391(2), 85-100). In this assay, cells that express the voltage-gated sodium channel protein of interest are exposed to the drugs by conventional microperfusion systems, or by a home-built perfusion system. A suitable voltage stimulus protocol is used to activate the voltage-gated sodium channels.
(§5) A suitable voltage stimulus protocol is used to activate voltage-gated sodium channel proteins of interest. A typical stimulus protocol may consist of sweeps of sequential voltage pulses starting from a holding potential (i.e. −65 mV), to a more positive and depolarising test pulse potential (i.e. −10 mV) and finally to a more negative and hyperpolarising potential (i.e. −100 mV). According to the biophysics of the voltage-gated ion channel of interest and interest in channel configuration the voltages and durations of the pulses as well as the overall frequency of sweeps applied might vary. Accordingly, a stimulus protocol was designed to assess compounds due to their potential to block NaV1.7 channels primarily in inactivated state. Selectivity over other voltage-gated sodium channel members was assessed by protocols that reflect the native function of the channels (i.e. heart rate or firing of neurons).
(§6) Electrophysiological studies can also be performed using the whole cell configuration of the standard manual patch clamp technique as described in the literature (e.g. Pflugers Arch., 1981, 391(2), 85-100). In this assay, cells that express the human voltage-gated sodium channel protein of interest are exposed to the drugs by conventional microperfusion systems, or by a home-built perfusion system. A suitable voltage stimulus protocol is used to activate the voltage-gated sodium channels. A suitable voltage stimulus protocol may consist of sequential voltage pulses from a holding potential, each first hyperpolarizing the cell, then depolarizing the channels for a brief period. A particularly suitable holding potential may be a voltage allowing a fraction of channels to remain in an inactivated state, like −60 mV. A suitable hyperpolarizing voltage and duration may be −120 mV for 100 ms, and depolarization voltage and duration may be −20 mV for 25 ms, and a suitable frequency of pulses may be 0.1 Hz, but may also have other parameters. Accordingly, a stimulus protocol was designed to assess compounds due to their potential to block NaV1.7 channels primarily in inactivated state. Selectivity over other voltage-gated sodium channel members was assessed by protocols that reflect the native function of the channels (i.e. heart rate or firing of neurons).

Nav1.5 [2] = molecular target: T2, Nav1.5 (Homo sapiens, UniProt Q14524); assay: Inhibition of Nav1.5 as measured using manual patch clamp; format: cell-based
T2 construct: expressed in transfected cells
From the text: as §3, §4, §5, §6
Inhibition of Nav1.5 by Compounds of formula (I) as measured using manual patch clamp

Nav 1.7 [3] = molecular target: T1, Nav 1.7; assay: Whole-cell voltage clamp electrophysiology, IonWorks Quattro (marker a in Table of Examples); format: cell-based; details: marker a: IonWork Quattro data; read-out: Nav 1.7 activity
From the text: as §1, §2, §3
(§7) Electrophysiological studies can be performed using automated or manual patch-clamp techniques. Automated patch-clamp instruments suitable for this work include the Ion Works HT (MDS), Ion Works Quattro (MDS), PatchLiner (Nanion technologies), Port-A-Patch (Nanion technologies), QPatch (Sophion) or any other suitable platform.
(§8) For recording in automated patch-clamp instruments, cells expressing the voltage-gated sodium channel subtype of interest are dispensed in appropriate chips (plates with more than one recording chambers each containing one or more apertures to generate whole-cell patches), as provided by the manufacturer. Typically, the whole-cell perforated patch configuration is used for probing the pharmacology of compounds in automated patch-clamp electrophysiology on sodium channels. Extracellular and intracellular buffers for such experiments are composed according to the literature, or according to the instructions provided by the manufacturer of the instruments. Test solutions, which contain the compounds to be tested, are applied to the cells expressing the sodium channel of interest by a pipetting system, typically integrated into the robots.
as §5

Nav1.5 [4] = molecular target: T2, Nav1.5; assay: Inhibition of Nav1.5 as measured using QPatch; format: cell-based
From the text: as §3, §7, §8, §5
Inhibition of Nav1.5 by Compounds of formula (I) as measured using QPatch

Nav 1.7 [5] = molecular target: T1, Nav 1.7; assay: Whole-cell voltage clamp electrophysiology, automated patch clamp (marker c in Table of Examples); format: cell-based; details: marker c: Automated patch clamp data; read-out: Nav 1.7 activity
Summary of the method: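 A voltage protocol weighted toward inactivated-state block was used to test compounds on stably expressing cells, with pulses from −65 mV holding to −10 mV test and −100 mV. Currents came from whole-cell automated patch-clamp recordings, either IonWorks Quattro or other automated instruments, usually in perforated-patch mode.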

[6] = system: inflammatory pain induced by intraplantar injection of Complete Freund's Adjuvant; assay: FCA (Freund's Complete Adjuvant) test, model of inflammatory pain; format: in vivo; details: rat, tested 72 h post FCA injection
Protocol: Compounds of formula (I) may show analgesic activity in the FCA (Freund's Complete Adjuvant) test in the rat, a model of inflammatory pain which is induced by intraplantar injection of Complete Freund's Adjuvant (Stein et al. Pharmac. Biochem. Behav., 1988, 31, 445-451). […] Thus, the local anesthetic effect may not mask the analgesic properties of the compounds (Scott et al., British Journal of Anaesthesia, 1988, 61, 165-8). […] All compounds were tested 72 h post FCA injection.

T2 sequence (Q14524 whole entry): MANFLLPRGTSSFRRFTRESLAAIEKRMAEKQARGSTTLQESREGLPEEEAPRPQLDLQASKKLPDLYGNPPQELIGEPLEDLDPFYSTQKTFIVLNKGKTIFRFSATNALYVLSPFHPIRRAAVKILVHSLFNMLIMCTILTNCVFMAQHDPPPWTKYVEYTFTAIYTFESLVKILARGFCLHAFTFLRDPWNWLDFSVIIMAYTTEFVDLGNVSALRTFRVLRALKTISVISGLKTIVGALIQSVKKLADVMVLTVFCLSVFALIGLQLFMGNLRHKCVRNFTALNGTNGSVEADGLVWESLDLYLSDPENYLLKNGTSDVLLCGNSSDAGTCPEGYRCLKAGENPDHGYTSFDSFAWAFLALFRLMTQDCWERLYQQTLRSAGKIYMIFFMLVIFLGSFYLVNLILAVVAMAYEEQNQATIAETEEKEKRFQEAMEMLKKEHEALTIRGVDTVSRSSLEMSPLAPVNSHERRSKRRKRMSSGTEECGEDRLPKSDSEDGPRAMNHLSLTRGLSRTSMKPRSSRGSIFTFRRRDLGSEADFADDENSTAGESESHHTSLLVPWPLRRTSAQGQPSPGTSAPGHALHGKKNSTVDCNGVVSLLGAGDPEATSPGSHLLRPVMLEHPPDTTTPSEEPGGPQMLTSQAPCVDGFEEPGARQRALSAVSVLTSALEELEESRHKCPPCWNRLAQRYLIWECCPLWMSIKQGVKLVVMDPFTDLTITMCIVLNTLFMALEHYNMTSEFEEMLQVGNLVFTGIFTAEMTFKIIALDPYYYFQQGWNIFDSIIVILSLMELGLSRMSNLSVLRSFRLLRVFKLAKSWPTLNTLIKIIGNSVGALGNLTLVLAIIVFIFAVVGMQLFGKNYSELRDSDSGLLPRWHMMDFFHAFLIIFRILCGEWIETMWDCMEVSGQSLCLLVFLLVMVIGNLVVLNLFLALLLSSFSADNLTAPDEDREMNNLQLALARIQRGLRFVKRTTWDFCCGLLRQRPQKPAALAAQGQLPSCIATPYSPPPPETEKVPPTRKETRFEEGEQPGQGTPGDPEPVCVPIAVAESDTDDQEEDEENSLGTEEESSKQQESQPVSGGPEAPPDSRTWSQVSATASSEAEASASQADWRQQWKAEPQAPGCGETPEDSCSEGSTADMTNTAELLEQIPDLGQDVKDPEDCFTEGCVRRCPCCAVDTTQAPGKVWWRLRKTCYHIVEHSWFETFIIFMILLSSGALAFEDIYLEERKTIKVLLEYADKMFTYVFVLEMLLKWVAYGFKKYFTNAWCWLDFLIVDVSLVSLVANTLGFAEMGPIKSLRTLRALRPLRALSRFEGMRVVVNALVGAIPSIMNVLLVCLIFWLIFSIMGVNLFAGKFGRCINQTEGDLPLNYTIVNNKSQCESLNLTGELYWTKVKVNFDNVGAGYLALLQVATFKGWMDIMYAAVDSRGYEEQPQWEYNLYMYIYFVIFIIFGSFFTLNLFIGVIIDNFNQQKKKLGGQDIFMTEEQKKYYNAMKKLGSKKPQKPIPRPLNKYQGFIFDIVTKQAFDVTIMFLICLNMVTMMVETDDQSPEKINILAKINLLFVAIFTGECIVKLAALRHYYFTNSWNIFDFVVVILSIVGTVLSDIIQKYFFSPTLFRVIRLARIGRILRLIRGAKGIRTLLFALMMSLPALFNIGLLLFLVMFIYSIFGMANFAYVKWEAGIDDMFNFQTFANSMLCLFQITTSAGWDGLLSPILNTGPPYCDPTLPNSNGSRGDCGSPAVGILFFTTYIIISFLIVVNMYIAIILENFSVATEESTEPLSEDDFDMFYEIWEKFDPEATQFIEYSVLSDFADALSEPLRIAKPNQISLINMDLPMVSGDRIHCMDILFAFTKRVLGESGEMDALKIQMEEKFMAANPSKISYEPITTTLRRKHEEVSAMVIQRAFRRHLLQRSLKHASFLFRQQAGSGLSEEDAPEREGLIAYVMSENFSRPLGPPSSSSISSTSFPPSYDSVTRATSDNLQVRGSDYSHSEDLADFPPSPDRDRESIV
T1 sequence (Q15858 whole entry): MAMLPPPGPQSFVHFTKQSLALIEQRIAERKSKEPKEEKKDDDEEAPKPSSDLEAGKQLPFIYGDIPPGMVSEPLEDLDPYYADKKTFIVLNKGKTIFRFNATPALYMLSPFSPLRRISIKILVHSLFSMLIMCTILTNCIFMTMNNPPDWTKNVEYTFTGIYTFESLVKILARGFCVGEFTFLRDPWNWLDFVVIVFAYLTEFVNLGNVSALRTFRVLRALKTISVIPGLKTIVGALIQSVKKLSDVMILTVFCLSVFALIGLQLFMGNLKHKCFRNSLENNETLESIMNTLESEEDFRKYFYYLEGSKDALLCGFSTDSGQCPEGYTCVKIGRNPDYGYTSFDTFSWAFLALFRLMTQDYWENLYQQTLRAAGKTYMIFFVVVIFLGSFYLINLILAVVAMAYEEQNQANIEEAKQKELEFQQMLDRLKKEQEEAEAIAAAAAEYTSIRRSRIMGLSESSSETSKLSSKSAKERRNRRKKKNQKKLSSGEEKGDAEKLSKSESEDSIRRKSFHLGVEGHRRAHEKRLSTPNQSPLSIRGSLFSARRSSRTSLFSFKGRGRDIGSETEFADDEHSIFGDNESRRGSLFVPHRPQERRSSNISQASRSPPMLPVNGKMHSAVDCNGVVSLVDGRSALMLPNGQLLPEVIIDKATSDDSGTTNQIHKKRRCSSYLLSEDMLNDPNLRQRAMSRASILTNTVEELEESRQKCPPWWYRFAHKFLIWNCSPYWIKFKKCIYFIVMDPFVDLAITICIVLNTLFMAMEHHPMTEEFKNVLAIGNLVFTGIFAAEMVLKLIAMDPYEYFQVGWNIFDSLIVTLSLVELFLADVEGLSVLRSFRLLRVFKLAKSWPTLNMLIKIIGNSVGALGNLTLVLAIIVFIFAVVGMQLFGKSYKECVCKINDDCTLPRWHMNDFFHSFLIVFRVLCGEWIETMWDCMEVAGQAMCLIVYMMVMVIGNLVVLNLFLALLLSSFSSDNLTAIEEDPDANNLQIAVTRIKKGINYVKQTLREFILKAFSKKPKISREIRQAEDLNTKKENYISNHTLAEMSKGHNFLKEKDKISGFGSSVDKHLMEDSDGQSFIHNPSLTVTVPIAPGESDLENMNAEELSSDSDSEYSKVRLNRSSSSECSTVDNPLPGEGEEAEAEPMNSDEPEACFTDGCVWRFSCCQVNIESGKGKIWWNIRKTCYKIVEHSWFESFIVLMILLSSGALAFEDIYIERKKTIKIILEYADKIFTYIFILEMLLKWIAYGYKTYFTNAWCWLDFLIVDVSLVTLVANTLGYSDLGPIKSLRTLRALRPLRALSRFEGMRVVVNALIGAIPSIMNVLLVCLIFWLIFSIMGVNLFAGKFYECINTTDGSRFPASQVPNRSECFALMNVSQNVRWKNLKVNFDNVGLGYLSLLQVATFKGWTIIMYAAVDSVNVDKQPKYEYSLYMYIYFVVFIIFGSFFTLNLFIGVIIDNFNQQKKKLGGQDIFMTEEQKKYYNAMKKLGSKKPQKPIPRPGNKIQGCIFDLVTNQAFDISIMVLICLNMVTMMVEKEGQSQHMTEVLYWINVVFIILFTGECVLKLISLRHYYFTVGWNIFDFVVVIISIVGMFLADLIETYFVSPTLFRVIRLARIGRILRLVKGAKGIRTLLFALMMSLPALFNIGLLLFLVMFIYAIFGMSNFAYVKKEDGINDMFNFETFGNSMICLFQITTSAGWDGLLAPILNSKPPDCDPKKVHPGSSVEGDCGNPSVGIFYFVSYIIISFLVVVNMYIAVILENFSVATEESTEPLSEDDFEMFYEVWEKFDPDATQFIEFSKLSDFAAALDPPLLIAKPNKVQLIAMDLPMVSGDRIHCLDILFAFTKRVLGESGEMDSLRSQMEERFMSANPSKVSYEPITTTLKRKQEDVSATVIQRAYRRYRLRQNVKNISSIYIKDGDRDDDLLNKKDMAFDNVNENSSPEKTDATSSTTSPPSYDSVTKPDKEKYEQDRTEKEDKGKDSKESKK

Row | SMILES | IC50 (Nav 1.7 [1]) [nM] | IC50 (Nav1.5 [2]) [nM] | IC50 (Nav 1.7 [3]) [nM] | other results
1 | CN(c1ccccc1)c1nc(N)nc(-c2noc(-c3ccco3)n2)n1 [Example 1, 6-(5-Furan-2-yl-[1,2,4]oxadiazol-3-yl)-N-methyl-N-phenyl-[1,3,5]triazine-2,4-diamine] | 212 | 2430 | – | –
2 | CN(c1cccc(Cl)c1)c1nc(N)nc(-c2noc(-c3ccco3)n2)n1 [Example 7, 6-(5-Furan-2-yl-[1,2,4]oxadiazol-3-yl)-N-methyl-N-(3-chlorophenyl)-[1,3,5]triazine-2,4-diamine] | 187 | 847 | – | –
3 | CN(c1ccc(F)cc1)c1nc(N)nc(-c2noc(-c3ccco3)n2)n1 [Example 16, N-(4-Fluoro-phenyl)-6-(5-furan-2-yl-[1,2,4]oxadiazol-3-yl)-N-methyl-[1,3,5]triazine-2,4-diamine] | 264 | 1050 | – | –
4 | CN(c1nc(N)nc(-c2noc(-c3ccco3)n2)n1)c1ccccc1Cl [Example 17, N-(2-Chloro-phenyl)-6-(5-furan-2-yl-[1,2,4]oxadiazol-3-yl)-N-methyl-[1,3,5]triazine-2,4-diamine] | – | – | < 5000 | –
5 | Cc1ccccc1N(C)c1nc(N)nc(-c2noc(-c3ccco3)n2)n1 [Example 18, 6-(5-Furan-2-yl-[1,2,4]oxadiazol-3-yl)-N-methyl-N-o-tolyl-[1,3,5]triazine-2,4-diamine] | – | – | < 5000 | –
6 | Cc1ccc(-c2nc(-c3nc(N)nc(N(C)c4ccccc4)n3)no2)o1 [Example 19, N-Methyl-6-[5-(5-methyl-furan-2-yl)-[1,2,4]oxadiazol-3-yl]-N-phenyl-[1,3,5]triazine-2,4-diamine] | – | – | 61 | –
7 | CN(Cc1ccccc1)c1nc(N)nc(-c2noc(-c3ccco3)n2)n1 [Example 20, N-Benzyl-6-(5-furan-2-yl-[1,2,4]oxadiazol-3-yl)-N-methyl-[1,3,5]triazine-2,4-diamine] | – | – | < 3000 | –
8 | CCN(c1ccccc1)c1nc(N)nc(-c2noc(-c3ccco3)n2)n1 [Example 21, N-Ethyl-6-(5-furan-2-yl-[1,2,4]oxadiazol-3-yl)-N-phenyl-[1,3,5]triazine-2,4-diamine] | 249 | 2060 | – | –
9 | Nc1nc(-c2noc(-c3ccco3)n2)nc(N2CCc3ccccc32)n1 [Example 22, 4-(2,3-Dihydro-indol-1-yl)-6-(5-furan-2-yl-[1,2,4]oxadiazol-3-yl)-[1,3,5]triazin-2-ylamine] | – | – | < 1000 | –
10 | COc1cccc(-c2nc(-c3nc(N)nc(N(C)c4ccccc4)n3)no2)c1 [Example 24, 6-[5-(3-Methoxy-phenyl)-[1,2,4]oxadiazol-3-yl]-N-methyl-N-phenyl-[1,3,5]triazine-2,4-diamine] | – | – | < 500 | –
11 | Nc1nc(Nc2cccc(Cl)c2)nc(-c2noc(-c3ccco3)n2)n1 [Example 32, N-(3-Chloro-phenyl)-6-(5-furan-2-yl-[1,2,4]oxadiazol-3-yl)-[1,3,5]triazine-2,4-diamine] | – | – | < 500 | –
12 | CN(c1cccc(C(F)(F)F)c1)c1nc(N)nc(-c2noc(-c3ccco3)n2)n1 [Example 33] | – | – | < 1000 | –
13 | CN(c1nc(N)nc(-c2noc(-c3ccco3)n2)n1)c1cccc(F)c1F [Example 34, 6-(5-Furan-2-yl-[1,2,4]oxadiazol-3-yl)-N-methyl-N-(2,3-difluorophenyl)-[1,3,5]triazine-2,4-diamine] | – | – | < 500 | –
14 | Nc1nc(Nc2ccccc2)nc(-c2noc(-c3ccccn3)n2)n1 [Example 39, N-Phenyl-6-(pyridin-2-yl-[1,2,4]oxadiazol-3-yl)-[1,3,5]triazine-2,4-diamine] | 319 | – | – | IC50 (Nav1.5 [4]): 891 nM
15 | Nc1nc(Nc2ccccc2)nc(-c2noc(-c3ccc(OCC(F)(F)F)nc3)n2)n1 [Example 41, 2-N-Phenyl-6-{5-[6-(2,2,2-trifluoroethoxy)pyridin-3-yl]-1,2,4-oxadiazol-3-yl}-1,3,5-triazine-2,4-diamine] | – | – | – | IC50 (Nav 1.7 [5]): 673 nM; IC50 (Nav1.5 [4]): 334 nM
16 | CN(c1ccccc1)c1nc(N)nc(-c2noc(-c3ncccc3Br)n2)n1 [Example 43, 6-[5-(3-Bromopyridin-2-yl)-[1,2,4]oxadiazol-3-yl]-N-methyl-N-phenyl-[1,3,5]triazine-2,4-diamine] | – | – | – | IC50 (Nav 1.7 [5]): 102 nM; IC50 (Nav1.5 [4]): 1030 nM
17 | CN(c1ccccc1)c1nc(N)nc(-c2noc(-c3ccc(OCC(F)(F)F)nc3)n2)n1 [Example 67, N-Methyl-N-phenyl-6-{5-[6-(2,2,2-trifluoroethoxy)-pyridin-3-yl]-[1,2,4]oxadiazol-3-yl}-[1,3,5]triazine-2,4-diamine] | 110 | – | – | IC50 (Nav1.5 [4]): 7060 nM; analgesic efficacy in FCA test ([6]; 3 mg/kg p.o.): efficacious
18 | CN(c1ccccc1)c1nc(N)nc(-c2noc(C(=O)NCc3ccccc3)n2)n1 [Example 71, 3-[4-Amino-6-(methyl-phenyl-amino)-[1,3,5]triazin-2-yl]-[1,2,4]oxadiazole-5-carboxylic acid benzylamide] | 814 | – | – | IC50 (Nav1.5 [4]): 3020 nM
19 | CN(c1ccccc1)c1nc(N)nc(-c2noc(C(=O)NC3CCCC3)n2)n1 [Example 72, 3-[4-Amino-6-(methyl-phenyl-amino)-[1,3,5]triazin-2-yl]-[1,2,4]oxadiazole-5-carboxylic acid cyclopentylamide] | – | – | – | IC50 (Nav 1.7 [5]): 288 nM; IC50 (Nav1.5 [4]): 5960 nM
20 | CN(c1cccc(F)c1)c1nc(N)nc(-c2noc(-c3ccccc3Cl)n2)n1 [Example 86, 6-[5-(2-Chloro-phenyl)-[1,2,4]oxadiazol-3-yl]-N-(3-fluoro-phenyl)-N-methyl-[1,3,5]triazine-2,4-diamine] | 126 | 300 | – | –
21 | CCN(c1ccccc1)c1nc(N)nc(-c2noc(-c3ccccc3OC)n2)n1 [Example 95, N-Ethyl-6-[5-(2-methoxy-phenyl)-[1,2,4]oxadiazol-3-yl]-N-phenyl-[1,3,5]triazine-2,4-diamine] | 46 | 3700 | – | –
22 | CN(c1nc(N)nc(-c2noc(-c3ccco3)n2)n1)c1cc(Cl)ccc1F [Example 103, N-(5-Chloro-2-fluoro-phenyl)-6-(5-furan-2-yl-[1,2,4]oxadiazol-3-yl)-N-methyl-[1,3,5]triazine-2,4-diamine] | 42 | 215 | – | –
23 | CN(c1ccccc1)c1nc(N)nc(-c2noc(-c3nccs3)n2)n1 [Example 125, N-Methyl-N-pheny!-6-(5-thiazol-2-yl-[1,2,4]oxadiazol-3-yl)-[1,3,5]triazine-2,4-diamine] | 560 | 917 | – | analgesic efficacy in FCA test ([6]; 1 mg/kg p.o.): efficacious
24 | COc1cccnc1-c1nc(-c2nc(N)nc(N(C)c3ccccc3)n2)no1 [Example 132, 6-[5-(3-Methoxy-2-pyridyl)-[1,2,4]oxadiazol-3-yl]-N-methyl-N-phenyl-[1,3,5]triazine-2,4-diamine] | – | 2600 | – | IC50 (Nav 1.7 [5]): 397 nM
